Results reported in patent publication US12121530B2, “Composition and methods for treating articulating joint disorders with nucleoside reverse transcriptase inhibitors” (RHODE ISLAND HOSPITAL, priority 2018, dated 2024).

What was measured:
[1] = test system: Line-1; assay: siRNA against Line-1 in mouse primary chondrocytes, RT-qPCR; format: cell-based; settings: for Line-1 expression: siRNA screening, versus scramble siRNA
Procedure: Cells were seeded onto desired size plates to reach 70-90% confluence and transfected with miR-365 mimic or miRNA mimic negative control or miR-365 inhibitor or inhibitor negative control (Dharmacon®, Lafayette, Colo., USA). Lipofectamine 3000 (Invitrogen®, Waltham, Mass., USA) was used as transfection reagents. Medium is changed 24 hrs after transfection. 48 hrs post transfection, cells were lysated in either QIAzol for RNA purification and real-time PCR analysis or ice-cold lysis buffer containing protease inhibitor and phosphatase inhibitor for western blot analysis. MiR-365 mimic, miRNA mimic negative control, miR-365 inhibitor and inhibitor negative control were typically used at a final concentration of 25 nM unless otherwise stated.
Both miRNA and mRNA were extracted using miRNeasy Mini Kit (Qiagen®, Germantown, Md., USA) and reversely transcribed using miScriptIIRT Kit (Qiagen®, Germantown, Md., USA) according to manufacturer's instruction. qPCR was performed using SYBR Green PCR master mix (Qiagen®, Germantown, Md., USA) on a Bio-Rad CFX96 real-time PCR detection system (Bio-Rad®, Hercules, Calif., USA). Amplification conditions are as follows: 95° C. for 10 min, 40 cycles of 95° C. for 10″, 55° C. for 30″, and 72° C. for 30″. 18S ribosomal or GAPDH RNA was used as an internal control gene to normalize the mRNAs level. The ubiquitously expressed snRNA U6 was used as an endogenous control for miRNAs level. Primers were synthesized by Integrated DNA Technologies (http://www.idtdna.com). The primers for miR-365 were purchased from Qiagen. Fold changes of mRNA and miRNAs were calculated by the 2^^(ΔΔCt) method and normalized to 18S/GAPDH or U6 snRNA, respectively.

[2] = test system: HIV patients; assay: summary data of NRTI on OA in HIV patients; format: in vivo, human; settings: for expanded OA (ICD-9-CM 715, 716 or 719) / strict OA (ICD-9-CM 715): HIV patients; for strict OA (ICD-9-CM 715): older than 50, dosage dependent, both male and female
Excerpt: Medical provider diagnoses of ICD-9-CM 715 [osteoarthrosis and allied disorders] include the following definitions: 1) strict=ICD-9-CM 715; 2) expanded=ICD-9-CM 715, 716 [other and unspecified arthropathies], OR 719 [other and unspecified disorders of joint]); and 3) probable=strict OR expanded+respondent-reported prior diagnosis of OA or other arthritis excluding rheumatoid arthritis (RA).

[3] = mouse PC transfected with miR-365 mimic

Compound	Line-1 expression [1]	expanded OA (ICD-9-CM 715, 716 or 719) [2]	strict OA (ICD-9-CM 715) [2]	also measured
siLine-1D: siRNA against Line-1, AAGGTCAAATCTAAGTGGATC (SEQ ID NO: 96) (AAGGTCAAATCTAAGTGGATC; listed as DNA, chemistry not given here)	significantly suppressed	–	–	miR-365-elicited gene expression changes (L1, Adamts5, Mmp3, Ihh, Col2a1, Acan) ([1]; co-transfected with miR-365 (FIG. 1D-1I)): abolished; miR-365 led induction of Ihh [1, 3]: successfully rescued; miR-365 led induction of Line-1 [1, 3]: successfully rescued
Cc1cn([C@H]2C[C@H](N=[N+]=[N-])[C@@H](CO)O2)c(=O)[nH]c1=O [ZDV, Zidovudine]	–	partially inhibiting	inhibiting	–
Nc1nc(NC2CC2)c2ncn([C@H]3C=C[C@@H](CO)C3)c2n1 [ABC, abacavir]	–	–	inhibiting	–
O=c1nc[nH]c2c1ncn2[C@H]1CC[C@@H](CO)O1 [DDL, 2′,3′-dideoxyinosine]	–	inhibiting	inhibiting	toxicity ([2]; group of less than 40 years old): No toxicity
siLine-1C: siRNA against Line-1, AAGCCACTATTACTCTGATAC (SEQ ID NO: 95) (AAGCCACTATTACTCTGATAC; listed as DNA, chemistry not given here)	significantly suppressed	–	–	–
siLine-1E: siRNA against Line-1, AAGTTTCTGCAAGGCAAAAGA (SEQ ID NO: 97) (AAGTTTCTGCAAGGCAAAAGA; listed as DNA, chemistry not given here)	significantly suppressed	–	–	–
Cc1cn([C@H]2C=C[C@@H](CO)O2)c(=O)[nH]c1=O [D4T, 2′,3′-didehydro-2′,3′-dideoxythymidine]	–	inhibiting	inhibiting	extent of inhibition of strict OA and expanded OA ([2]; among NRTIs): highest extent of inhibition
